In PMC6602202, “Enteroendocrine peptides regulate feeding behavior via controlling intestinal contraction of the silkworm Bombyx mori” (PLoS ONE, 2019):

What was measured:
B. mori larvae [1] = experiment: Feeding behavioral assay (latency to first bite), 2-day-old fifth-instar larvae; format: in vivo, Bombyx mori; details: 100 μL injected dorsolaterally into the hemolymph, after 16 h diet deprivation, n = 3
Procedure: A part of the eluents of the fractions from RP-HPLC as well as synthetic peptide solutions was evaporated to dryness and dissolved in 100 μL distilled water just prior to the bioassay. The feeding cycles of 2-day-old fifth-instar B. mori larvae were synchronized by diet deprivation for 16 h. After diet deprivation, the larvae were anesthetized by submerging in icy water for 15 min. Then, 100 μL sample was injected dorsolaterally into the hemolymph. After injection, the larvae were placed in front of artificial diet blocks, and then the latency to their first bites as the initiation of feeding (first bite) after sample-injection was measured as reported previously. Statistical analysis was performed using a one-way analysis of variance (one-way ANOVA), then a post hoc Dunnett’s test. Reproducibility was confirmed at least twice by assays using different populations of larvae.

BNGR-A5 = experiment: aequorin-based bioluminescent calcium assay, CHO cells expressing BNGR-A5; format: cell-based, Bombyx mori; details: aequorin luminescence 20 s, triplicates, three experiments
Procedure: (§1) Activity of the BNGR-A5 and -16 receptors were analyzed using Chinese hamster ovary (CHO) cells transiently transfected with plasmids for expression of each BNGR, calcium-sensitive reporter aequorin and chimeric G protein that couple with receptor activation to an intracellular Ca^2+-increase independent of the endogenous receptor signaling cascade. The entire open reading frames of BNGR-A5 and -16 were cloned into pcDNA3.1(+) vector (Invitrogen) with a Kozak translation initiation sequence incorporated at 5´end. Plasmids for codon optimized aequorin and chimeric G proteins were used as described previously. […]
(§2) The transfected cells were detached using PBS supplemented with 0.2% EDTA and rinsed of the culture plates with the assay medium—phenol red free DMEM/F12 with L-glutamine and 15 mM HEPES (PAN Biotech, Wimborne, Dorset, UK), 0.1% BSA (Sigma-Aldrich Co. LLC.) and 1% penicillin/streptomycin (Life Technologies). […] Emitted luminescence signal corresponding to the ligand-induced intracellular Ca^2+ release was recorded for 20 s using the GloMax-Multi+ Detection System (Promega). […]

BNGR-A16 [2] = experiment: aequorin-based bioluminescent calcium assay, CHO cells expressing BNGR-A16; format: cell-based, Bombyx mori; details: aequorin luminescence 20 s, triplicates, three experiments
Procedure: as §1, §2

pharynx = experiment: Spontaneous contraction of the pharynx in dissected open larvae; set-up: species or system Bombyx mori; details: 10^−9–10^−5 M, 27°C, n = 5
Procedure: (§3) The opened head and abdominal portion of 2-day-old fifth-instar larvae (fed ad libitum and non-fed for 16 h) were washed twice with B. mori Ringer’s solution and incubated for 3 min at 27°C to stabilize the movement. After incubation, the contractile movements of the larval foregut and hindgut, particularly the spontaneous contraction of the pharynx and ileum (predominantly contracting area in hindgut) were observed and recorded using a digital microscope USB2.0 DigiScope II v2^TM (CHRONOS, Taipei, Taiwan). 100 μL of B. mori Ringer’s solution was added to the examined gut at 60 s after starting recording. Furthermore, 100 μL of B. mori Ringer’s solution (vehicle control) and 100 μL peptide-containing solution (10^−9–10^−5 M of peptides dissolved in B. mori Ringer’s solution) were exposed over gut at 120 s after a recording start. The contractile movements were analyzed using ImageJ software (https://imagej.net/Fiji) with the Optic flow plug-in (Gaussian window MSE). […] The position of the lines used for the kymograph analyses (x-y, z-w) were determined by Optic flow analyses. The waveform of the kymographs, corresponding to the visible contractions in the recorded movies, were quantified and converted to myograms. […] Invisible contractions in the recorded movie and extremely small amplitudes in the myograms were considered as no significant contractions. […]

ileum = experiment: Spontaneous contraction of the ileum in dissected open larvae; set-up: species or system Bombyx mori
Procedure: The opened head and abdominal portion of 2-day-old fifth-instar larvae (fed ad libitum and non-fed for 16 h) were washed twice with B. mori Ringer’s solution and incubated for 3 min at 27°C to stabilize the movement. After incubation, the contractile movements of the larval foregut and hindgut, particularly the spontaneous contraction of the pharynx and ileum (predominantly contracting area in hindgut) were observed and recorded using a digital microscope USB2.0 DigiScope II v2^TM (CHRONOS, Taipei, Taiwan). 100 μL of B. mori Ringer’s solution was added to the examined gut at 60 s after starting recording. Furthermore, 100 μL of B. mori Ringer’s solution (vehicle control) and 100 μL peptide-containing solution (10^−9–10^−5 M of peptides dissolved in B. mori Ringer’s solution) were exposed over gut at 120 s after a recording start. The contractile movements were analyzed using ImageJ software (https://imagej.net/Fiji) with the Optic flow plug-in (Gaussian window MSE). The direction of contractile movement was represented by the color and arrows described in the ‘Direction’ map. The position of the lines used for the kymograph analyses (x-y, z-w) were determined by Optic flow analyses. The waveform of the kymographs, corresponding to the visible contractions in the recorded movies, were quantified and converted to myograms. The number of contractions in 60 s was defined as the ‘contraction frequency’. Invisible contractions in the recorded movie and extremely small amplitudes in the myograms were considered as no significant contractions. The evaluation of visible contraction was defined by giving a threshold at the half length of the observed amplitude. The effect of synthetic peptides was represented by the ratio of the ‘contraction frequency’ at 60–120 s to 120–180 s (%) due to the extendedly various frequencies by individuality; the pharynx (30-40/60s) and hindgut (20-40/60s). This methodology by kymograph is substantially corresponding to the previously used assays for intestinal contraction. […]

foregut and hindgut = experiment: Wash-out of contraction inhibition, isolated gut; set-up: species or system Bombyx mori; details: washing with the vehicle without the ligands
Procedure: as §3

esophagus = experiment: Esophageal contraction in intact transparent larvae; format: in vivo, Bombyx mori
Procedure: Transparent larvae were prepared by feeding an artificial diet containing 0.05% melamine (Wako Pure Chemical Industries) starting from 0-day-old fifth-instar larvae. […] The visible effect took place in 2-day-old fifth-instar larvae compared to normally fed larvae. The feeding behavioral assay of transparent larva was performed in the same way as that of normal larvae. Each transparent larva was surrounded with a soft sponge and held with both sides by two slide glasses. Transmitted light enabled to illuminate the shape and movement of the shadowed esophagus portion. The contraction of foregut, particularly ‘forward contraction wave’ and ‘peristaltic squeeze’ at the esophagus were observed using a digital microscope to measure the number of contractions per minute. The ‘peristaltic squeezes’ at 8 h and 16 h in non-fed larvae were unmeasurable because of the limit of detection in our observation using digital microscope. 100 μL of distilled water (vehicle control) and 100 μL peptide-containing solution (10^−7–10^−4 M of peptides dissolved in distilled water) were injected dorsolaterally into the hemolymph. After injection, the numbers of contractions per minute of the esophagus were counted from the data of 3 min observation. Statistical analysis was performed using a one-way ANOVA, then a post hoc Dunnett’s test. Reproducibility was confirmed at least twice by assay using different populations of larvae.

BNGR-A16 [3] = details: cited from earlier work
intestinal contractions = details: cited from earlier work
Description: (§4) The myoinhibitory activities of AT and GSRYa-1 and -2 in the foregut (pharynx and esophagus) and hindgut (ileum) (Figs 5E, 5F and 6E) seem to be linked to the delay in feeding initiation in B. mori larvae (Figs 1D and 6B).

[4] = tested on: foregut, midgut and hindgut; details: other insect species; 48 (foregut), 27, 49 (midgut), 50, 51 (hindgut); cited from earlier work
Description: AT was originally isolated from extracts of heads of pharate adult tobacco hornworm, Manduca sexta as an allatoregulatory peptide. […] Consistently, it is possible in other insect species that ...

[5] = tested on: foregut of Helicoverpa armigera; details: cited from earlier work
Description: (§5) AT-producing EEs (Fig 2C and 2D) and GSRYamide-producing EEs (Fig 2E and 2F) also have the potential to deliver secretory granules containing peptidyl factors to the hemocoel side through a cellular membrane. Those EEs have similar cellular morphology to EEs releasing other arthropod neuropeptide CCAP (Crustacean cardioactive peptide) observed in the American cockroac ...

[6] = tested on: foregut of Lacanobia oleracea; details: cited from earlier work
Description: as §5

D. melanogaster [7] = details: cited from earlier work
Description: Peptides having C-terminal RYamide sequences constitute a neuropeptide Y (NPY) family, which is conserved both in vertebrates and invertebrate.

B. mori larvae [8] = details: cited from earlier work
Description: Among the feeding regulatory peptides in insects, several peptides are known as ‘brain-gut peptides’, which are expressed and produced in the brain and intestinal organs. […] These peptides may regulate not only the physiological functions related to digestion and intestinal lipid metabolisms but also the intestin ... || The myoinhibitory activities of AT and GSRYa-1 and -2 in the foregut (pharynx and esophagus) and hindgut (ileum) (Figs 5E, 5F and 6E) seem to be linked to the delay in feeding initiation in B. mori larvae (Figs 1D and 6B).

[9] = tested on: hindgut of Leucophaea maderae; details: cited from earlier work
Description: as §5

D. melanogaster [10] = details: cited from earlier work; remark: listed apart in the source
Description: as §4

Schistocerca. gregaria = details: cited from earlier work
gut = details: Periplaneta americana; cited from earlier work
Description: as §5

[11] = 10^−7–10^−4 M, 100 μL injected dorsolaterally, fed ad libitum transparent larvae, counted over 3 min, P < 0.05, n = 5

allatotropin
effect on latency to the first bite, synthetic peptides (B. mori larvae [1]; significant by one-way ANOVA (P < 0.01)): prolonged the latency to the first bite in a dose-dependent manner | ED50, prolongation of the latency to the first bite (B. mori larvae [1]; synthetic peptides): 1000 nM | affinity, BNGR-A5 (BNGR-A5): much higher affinity to AT than BNGR-A16 | response, BNGR-A16 (BNGR-A16 [2]): response of BNGR-A5 (Fig 3 an arrow) as well as BNGR-A16 to AT | relative frequency of contraction, pharynx, fed ad libitum (pharynx; larvae fed ad libitum, 60–120 s vs 120–180 s): decreased relative frequency of contraction | relative frequency of contraction, pharynx, non-fed (pharynx; larvae non-fed for 16 h): decreased the frequency | contraction of ileum (movie) (ileum; 10^−6 M exposed at 120 s, larvae fed ad libitum): the contraction of ileum was inhibited | relative frequency of contraction, ileum, fed ad libitum (ileum; larvae fed ad libitum, 10^−9–10^−5 M, 27°C, 60–120 s vs 120–180 s, n = 5): decreased relative frequency of contraction | relative frequency of contraction, ileum, non-fed (ileum; larvae non-fed for 16 h, 10^−9–10^−5 M, 27°C, n = 5): decreased the frequency | reversibility of inhibition on washing (foregut and hindgut): did not resume even after washing | forward contraction wave and peristaltic squeeze (movie) (esophagus; 10^−5 M solution injected dorsolaterally into the hemolymph): the forward contraction wave and peristaltic squeeze were inhibited | number of forward contraction waves (esophagus; [11]): decreased numbers of forward contraction waves and peristaltic squeezes in a dose-response manner | number of peristaltic squeezes (esophagus; [11]): decreased numbers of forward contraction waves and peristaltic squeezes in a dose-response manner | AT receptor assignment (BNGR-A16 [3]): the AT receptor is assigned to be BNGR-A16 | effect on intestinal contractions, other Lepidopteran species (intestinal contractions): stimulatory effect | myoregulatory activity on foregut, midgut and hindgut [4]: myoregulatory activities | effect on spontaneous contraction of the foregut, H. armigera [5]: regulate spontaneous contraction of the foregut | effect on spontaneous contraction of the foregut, L. oleracea [6]: regulate spontaneous contraction of the foregut

neuropeptide F [NPF]
effect on larval feeding behavior (D. melanogaster [7]): regulate larval feeding behavior

short neuropeptide F (sNPF) -2 [sNPF-2]
effect on feeding initiation, peptides (B. mori larvae [8]): feeding acceleratory effects that can shorten the latency to the initiation of feeding

allatostatin [AST, reference compound]
effect on spontaneous contraction of the foregut, H. armigera [5]: regulate spontaneous contraction of the foregut | effect on spontaneous contraction of the foregut, L. oleracea [6]: regulate spontaneous contraction of the foregut

myosuppressin (leukomyosuppressin)
effect on spontaneous contraction of the foregut, L. oleracea [6]: regulates spontaneous contraction of the foregut | effect on spontaneous contraction of the hindgut, L. maderae [9]: regulates spontaneous contraction of the foregut of Lacanobia oleracea [66] and the hindgut of Leucophaea maderae

short neuropeptide F [sNPF]
effect on feeding initiation, peptides (B. mori larvae [8]): feeding acceleratory effect | effect on food intake and body weight (D. melanogaster [10]): stimulates food intake and body weight gain | effect on food intake (Schistocerca. gregaria): an inhibitory effect on food intake

tachykinin-related peptides [B. mori TRPs]
effect on feeding initiation, peptides (B. mori larvae [8]): feeding acceleratory effects that can shorten the latency to the initiation of feeding

Crustacean cardioactive peptide [CCAP]
effect on gut contraction (gut): multiple roles, including gut contraction
